Strand notation (5' to 3'): a small letter for the sugar, then the base; units joined by * are phosphorothioate-linked, units joined directly phosphodiester-linked; [ ] holds rarer units or linkages, { } end groups; capitals alone tell only the bases. e = 2'-O-(2-methoxyethyl) (MOE); [5mC] = 5-methylcytosine; d = 2'-deoxy (DNA)
What follows are substances tested on human Factor 7 mRNA (assay: Antisense inhibition of human Factor 7 mRNA in HepB3 cells, 50 nM antisense oligonucleotide, lipofectin). Settings: Table 1, 50 nM, lipofectin, approximately 24 hours, relative to untreated control cells.
Assay type: cell-based
Summary of the method: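 HepB3 cells were transfected by lipofectin with 50 nM antisense oligonucleotide and harvested after about 24 h. Factor 7 mRNA was measured by real-time RT-PCR (primer probe set RTS 2927 in some runs), normalized to RIBOGREEN total RNA, and reported as percent inhibition versus untreated control.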

| Substance | % Inhibition [%] |
| --- | --- |
| 407614 (antisense eT*eG*e[5mC]*eA*eG*dT*dA*d[5mC]*dT*dG*d[5mC]*dT*d[5mC]*dA*d[5mC]*eA*eG*e[5mC]*e[5mC]*eG) [compound 407614] | 78 |
| 407637 (antisense eG*eT*eA*e[5mC]*eT*dG*dG*dG*dA*dG*dA*d[5mC]*d[5mC]*d[5mC]*dT*eG*eG*eT*eG*eT) [compound 407637] | 71 |
| 407607 (antisense eT*eG*eG*eA*eG*d[5mC]*dT*dG*dG*dT*d[5mC]*d[5mC]*dT*dT*dG*e[5mC]*eA*eG*eG*eA) [compound 407607] | 76 |
| 407921 (antisense e[5mC]*e[5mC]*eA*e[5mC]*eA*dG*dG*d[5mC]*d[5mC]*dA*dG*dG*dG*d[5mC]*dT*eG*e[5mC]*eT*eG*eG) [compound 407921] | 65 |
| 407599 (antisense e[5mC]*e[5mC]*eT*eG*eG*dG*dA*dG*dA*d[5mC]*d[5mC]*dA*dT*dG*dA*eT*eG*eA*eA*eA) [compound 407599] | 73 |
| 407909 (antisense e[5mC]*e[5mC]*eA*eT*e[5mC]*d[5mC]*dG*dA*dG*dT*dA*dG*d[5mC]*d[5mC]*dG*eG*e[5mC]*eA*e[5mC]*eA) [compound 407909] | 77 |
| 407922 (antisense eT*e[5mC]*eG*eA*e[5mC]*dG*d[5mC]*dA*dG*d[5mC]*d[5mC]*dT*dT*dG*dG*e[5mC]*eT*eT*eT*e[5mC]) [compound 407922] | 82 |
| 407635 (antisense eT*eG*eG*e[5mC]*e[5mC]*d[5mC]*d[5mC]*dA*dG*d[5mC]*dT*dG*dA*d[5mC]*dG*eA*eT*eG*e[5mC]*e[5mC]) [compound 407635] | 64 |
| 407959 (antisense eG*e[5mC]*eA*eG*eG*dG*dA*dT*dG*dG*d[5mC]*dA*dT*d[5mC]*dG*eA*eG*eT*e[5mC]*e[5mC]) [compound 407959] | 0 |
| 407608 (antisense eT*eA*eT*eA*eG*dG*dA*d[5mC]*dT*dG*dG*dA*dG*d[5mC]*dT*eG*eG*eT*e[5mC]*e[5mC]) [compound 407608] | 13 |
| 407617 (antisense eT*e[5mC]*e[5mC]*eA*e[5mC]*dA*dT*dG*dG*dA*dT*dA*dT*dT*d[5mC]*eA*eA*e[5mC]*eT*eG) [compound 407617] | 67 |
| 407912 (antisense e[5mC]*e[5mC]*e[5mC]*eG*eG*dT*dA*dG*dT*dG*dG*dG*dT*dG*dG*e[5mC]*eA*eT*eG*eT) [compound 407912] | 46 |
| 407914 (antisense e[5mC]*e[5mC]*eA*eG*e[5mC]*dT*dG*dA*d[5mC]*dG*dA*dT*dG*d[5mC]*d[5mC]*e[5mC]*eG*eT*e[5mC]*eA) [compound 407914] | 82 |
| 407930 (antisense e[5mC]*eA*eA*eT*eG*dA*dA*dG*dG*d[5mC]*dA*dG*dA*dG*d[5mC]*eA*eG*e[5mC]*eA*eG) [compound 407930] | 70 |

Same assay, conditions: Table 6, 50 nM, lipofectin, approximately 24 hours

| Substance | % Inhibition [%] |
| --- | --- |
| 422266 (antisense e[5mC]*eG*d[5mC]*dG*dG*dA*dA*dG*dA*dA*dG*dG*dG*dA*d[5mC]*eG*eG*eA*eA*eG) [compound 422266] | 13 |
| 422275 (antisense eG*eT*dT*dA*d[5mC]*dT*dG*dA*dG*d[5mC]*dG*d[5mC]*dG*dG*dA*eA*eG*eA*eA*eG) [compound 422275] | 42 |
| 422187 (antisense e[5mC]*eG*eG*dA*dA*dG*dA*dA*dG*dG*dG*dA*d[5mC]*dG*dG*dA*dA*eG*eG*eT) [compound 422187] | 28 |
| 422197 (antisense eT*eT*eA*d[5mC]*dT*dG*dA*dG*d[5mC]*dG*d[5mC]*dG*dG*dA*dA*dG*dA*eA*eG*eG) [compound 422197] | 26 |
| 422189 (antisense e[5mC]*eG*e[5mC]*dG*dG*dA*dA*dG*dA*dA*dG*dG*dG*dA*d[5mC]*dG*dG*eA*eA*eG) [compound 422189] | 0 |
| 422264 (antisense e[5mC]*eG*dG*dA*dA*dG*dA*dA*dG*dG*dG*dA*d[5mC]*dG*dG*eA*eA*eG*eG*eT) [compound 422264] | 24 |
| 422188 (antisense eG*e[5mC]*eG*dG*dA*dA*dG*dA*dA*dG*dG*dG*dA*d[5mC]*dG*dG*dA*eA*eG*eG) [compound 422188] | 37 |

Same assay, conditions: gapmers targeted to nucleobases 4868 to 4899 of SEQ ID NO: 1, Table 8

| Substance | % Inhibition of human Factor 7 mRNA levels [%] |
| --- | --- |
| 422301 (antisense eG*eG*dA*dG*d[5mC]*d[5mC]*d[5mC]*dG*dA*dG*dT*dT*d[5mC]*dT*dG*e[5mC]*eA*eG*eG*eA) [compound 422301] | 67 |
| 422145 (antisense eG*e[5mC]*e[5mC]*e[5mC]*eG*dA*dG*dT*dT*d[5mC]*dT*dG*d[5mC]*dA*dG*eG*eA*eG*e[5mC]*eG) [compound 422145] | 57 |

Same assay, conditions: lipofectin, 50 nM antisense oligonucleotide, approximately 24 hours, Factor 7 mRNA by real-time RT-PCR (RTS 2927), relative to untreated control

| Substance | % Inhibition [%] |
| --- | --- |
| 416453 (antisense eG*eA*eT*eT*eT*dT*dG*dT*d[5mC]*dG*dA*dA*dA*d[5mC]*dA*eG*eT*eG*eG*eG) [compound 416453] | 45 |
| 416522 (antisense eG*eG*e[5mC]*eT*eG*dA*dG*dA*dA*dT*dT*dG*d[5mC]*d[5mC]*d[5mC]*eA*eG*eG*eG*e[5mC]) [compound 416522] | 25 |
| 416556 (antisense eA*eT*eA*eG*e[5mC]*dT*dT*dT*dG*dA*dT*d[5mC]*d[5mC]*dA*dA*eT*eG*e[5mC]*eT*e[5mC]) [compound 416556] | 53 |
| 416496 (antisense e[5mC]*eA*eA*e[5mC]*eA*d[5mC]*dT*dT*d[5mC]*dA*dA*dA*dT*dA*d[5mC]*eG*eA*eT*e[5mC]*eT) [compound 416496] | 0 |
| 416531 (antisense eA*eG*eA*eT*eG*dA*d[5mC]*d[5mC]*dA*dG*d[5mC]*dA*dG*dG*dA*eA*eG*e[5mC]*e[5mC]*eT) [compound 416531] | 19 |
| 416560 (antisense eT*eA*eA*eA*eA*d[5mC]*dT*dT*dT*dA*dT*dT*dT*dA*d[5mC]*eA*eA*eG*eA*eG) [compound 416560] | 0 |
| 416520 (antisense e[5mC]*e[5mC]*e[5mC]*eT*e[5mC]*dT*dG*d[5mC]*dA*dA*dA*dT*dA*dT*dG*eG*eG*eA*e[5mC]*e[5mC]) [compound 416520] | 14 |
| 416427 (antisense e[5mC]*e[5mC]*e[5mC]*eT*eG*dA*dA*dG*d[5mC]*d[5mC]*d[5mC]*dA*dA*dG*d[5mC]*eA*eG*eA*eA*eG) [compound 416427] | 5 |
| 416457 (antisense eG*eG*eA*eT*eG*dA*dT*dG*dA*d[5mC]*d[5mC]*dT*dG*d[5mC]*dG*e[5mC]*e[5mC]*eA*e[5mC]*e[5mC]) [compound 416457] | 48 |

Same assay, conditions: oligonucleotides targeted to nucleobases 11830 to 11869 of SEQ ID NO: 1 (Table 9)

| Substance | % Inhibition (human Factor 7 mRNA levels) [%] |
| --- | --- |
| 422174 (antisense eG*e[5mC]*eT*dG*dG*d[5mC]*dT*dG*dA*dG*dG*dA*dG*dA*d[5mC]*dA*dA*eT*eG*eG) [compound 422174] | 55 |
| 422247 (antisense eG*e[5mC]*dT*dG*dA*dG*dG*dA*dG*dA*d[5mC]*dA*dA*dT*dG*eG*eT*e[5mC]*eA*eG) [compound 422247] | 36 |
| 422161 (antisense eA*e[5mC]*eA*dA*dT*dG*dG*dT*d[5mC]*dA*dG*dG*dG*d[5mC]*dT*dG*dG*eT*eT*eT) [compound 422161] | 53 |
| 422170 (antisense eG*e[5mC]*eT*dG*dA*dG*dG*dA*dG*dA*d[5mC]*dA*dA*dT*dG*dG*dT*e[5mC]*eA*eG) [compound 422170] | 28 |

Same assay, conditions: oligonucleotides targeted to nucleobases 13760 to 13789 of SEQ ID NO: 1 (Table 10)

| Substance | % Inhibition (human Factor 7 mRNA levels) [%] |
| --- | --- |
| 422258 (antisense eG*e[5mC]*d[5mC]*dA*d[5mC]*d[5mC]*d[5mC]*dG*d[5mC]*d[5mC]*dG*dG*d[5mC]*dT*d[5mC]*eT*eG*e[5mC]*eT*e[5mC]) [compound 422258] | 66 |
| 422111 (antisense e[5mC]*eA*e[5mC]*e[5mC]*e[5mC]*dG*d[5mC]*d[5mC]*dG*dG*d[5mC]*dT*d[5mC]*dT*dG*e[5mC]*eT*e[5mC]*eA*eT) [compound 422111] | 37 |
| 422179 (antisense e[5mC]*eA*e[5mC]*d[5mC]*d[5mC]*dG*d[5mC]*d[5mC]*dG*dG*d[5mC]*dT*d[5mC]*dT*dG*d[5mC]*dT*e[5mC]*eA*eT) [compound 422179] | 43 |

Same assay, conditions: oligonucleotides targeted to nucleobases 14707 to 14732 of SEQ ID NO: 1 (Table 11)

| Substance | % Inhibition (human Factor 7 mRNA levels) [%] |
| --- | --- |
| 422200 (antisense e[5mC]*e[5mC]*eT*dG*dA*dG*dG*d[5mC]*d[5mC]*dA*dG*d[5mC]*dA*dG*dA*dT*d[5mC]*eA*e[5mC]*eG) [compound 422200] | 58 |
| 422279 (antisense eA*eG*d[5mC]*d[5mC]*dT*dG*dA*dG*dG*d[5mC]*d[5mC]*dA*dG*d[5mC]*dA*eG*eA*eT*e[5mC]*eA) [compound 422279] | 56 |
| 422277 (antisense e[5mC]*e[5mC]*dT*dG*dA*dG*dG*d[5mC]*d[5mC]*dA*dG*d[5mC]*dA*dG*dA*eT*e[5mC]*eA*e[5mC]*eG) [compound 422277] | 56 |
| 422202 (antisense eA*eG*e[5mC]*d[5mC]*dT*dG*dA*dG*dG*d[5mC]*d[5mC]*dA*dG*d[5mC]*dA*dG*dA*eT*e[5mC]*eA) [compound 422202] | 49 |

Same assay, conditions: oligonucleotides targeted to nucleobases 15098 to 15122 of SEQ ID NO: 1 (Table 12)

| Substance | % Inhibition (human Factor 7 mRNA levels) [%] |
| --- | --- |
| 422286 (antisense eA*eG*d[5mC]*dA*d[5mC]*dA*d[5mC]*dA*dT*dG*dG*dA*dG*dT*d[5mC]*eA*eG*e[5mC]*eA*eT) [compound 422286] | 53 |
| 422209 (antisense eA*eG*e[5mC]*dA*d[5mC]*dA*d[5mC]*dA*dT*dG*dG*dA*dG*dT*d[5mC]*dA*dG*e[5mC]*eA*eT) [compound 422209] | 47 |
